Consider 15 compounds from ChEMBL document CHEMBL1811837 (Bioorg Med Chem, 2011).

In assay [1] the target is T1, D(3) dopamine receptor (Homo sapiens, UniProt P35462). The assay is described as follows: biochemical.
The next assay addresses T2, D(4) dopamine receptor (Homo sapiens, UniProt P21917).
T2 sequence (P21917 whole entry): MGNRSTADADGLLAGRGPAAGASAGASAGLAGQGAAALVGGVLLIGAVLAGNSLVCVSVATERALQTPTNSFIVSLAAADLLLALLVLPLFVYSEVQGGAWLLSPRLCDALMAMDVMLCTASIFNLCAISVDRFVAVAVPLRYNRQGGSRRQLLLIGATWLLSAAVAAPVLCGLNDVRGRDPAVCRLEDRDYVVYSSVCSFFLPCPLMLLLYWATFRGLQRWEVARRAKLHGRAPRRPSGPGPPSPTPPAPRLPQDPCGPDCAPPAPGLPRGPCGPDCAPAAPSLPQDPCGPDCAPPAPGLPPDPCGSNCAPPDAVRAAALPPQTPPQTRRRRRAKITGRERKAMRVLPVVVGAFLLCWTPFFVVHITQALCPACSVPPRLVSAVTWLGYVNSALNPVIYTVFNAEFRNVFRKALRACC
The assay can be described thus: biochemical.

In assay [2] the target is T3, D(2) dopamine receptor (Homo sapiens, UniProt P14416). The assay can be described thus: biochemical.
T3 sequence (P14416 whole entry): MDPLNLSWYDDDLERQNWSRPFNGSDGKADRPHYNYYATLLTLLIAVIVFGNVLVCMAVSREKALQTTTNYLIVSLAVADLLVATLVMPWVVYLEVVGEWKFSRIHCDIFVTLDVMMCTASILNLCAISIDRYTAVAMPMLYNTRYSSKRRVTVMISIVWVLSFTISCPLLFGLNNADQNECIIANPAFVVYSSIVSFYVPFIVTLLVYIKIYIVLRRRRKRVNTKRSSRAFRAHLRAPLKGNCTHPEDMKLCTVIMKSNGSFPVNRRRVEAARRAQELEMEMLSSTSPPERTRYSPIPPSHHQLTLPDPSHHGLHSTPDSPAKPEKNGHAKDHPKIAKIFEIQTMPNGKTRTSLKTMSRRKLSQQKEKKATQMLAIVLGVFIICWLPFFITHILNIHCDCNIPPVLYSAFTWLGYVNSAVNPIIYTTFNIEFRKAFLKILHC
Assay [3] deals with Sigma non-opioid intracellular receptor 1 (Cavia porcellus, UniProt Q60492).
Sequence of Sigma non-opioid intracellular receptor 1 (Q60492 whole entry): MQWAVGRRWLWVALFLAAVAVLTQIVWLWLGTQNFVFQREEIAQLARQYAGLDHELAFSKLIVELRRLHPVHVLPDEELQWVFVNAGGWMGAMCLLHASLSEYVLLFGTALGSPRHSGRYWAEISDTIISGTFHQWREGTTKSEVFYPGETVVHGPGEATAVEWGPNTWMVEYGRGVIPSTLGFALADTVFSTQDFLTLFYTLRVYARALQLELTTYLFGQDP
Description: Displacement of [3H](+)-pentazocine from guinea pig brain sigma-1 receptor after 90 mins by liquid scintillation counter
The target of assay [4] is T3, D(2) dopamine receptor.
For assay [5], the target named is T3, D(2) dopamine receptor. The assay can be described thus: Intrinsic efficacy at human recombinant D2L receptor expressed in HEK cells assessed as assessed as inhibition of forskolin-induced [3H]cAMP production after 20 mins by […]. Type of assay: functional, cell-based. Also noted: scale not given: the % may be the effect or the level left. The conditions noted are these: HEK293.

Assay [6] deals with T3, D(2) dopamine receptor. The assay is described as follows: Partial agonist activity at human recombinant D2L receptor expressed in HEK cells assessed as inhibition of forskolin-induced [3H]cAMP production at 10 times Ki after 20 mins by […]. The assay is classed as functional, cell-based. The conditions noted are these: HEK293.
The target in assay [7] is T1, D(3) dopamine receptor. The assay is described as follows: Partial agonist activity at human recombinant D3 receptor expressed in HEK cells assessed as inhibition of forskolin-induced [3H]cAMP production at 10 times Ki after 20 mins by […]. Type of assay: functional, cell-based. The conditions noted are these: HEK293. In general terms: cAMP levels reflect the balance of adenylyl cyclase and phosphodiesterase activity.

The source made the active and inactive calls. The rule behind the calls is not given here.

T1 sequence (P35462 whole entry): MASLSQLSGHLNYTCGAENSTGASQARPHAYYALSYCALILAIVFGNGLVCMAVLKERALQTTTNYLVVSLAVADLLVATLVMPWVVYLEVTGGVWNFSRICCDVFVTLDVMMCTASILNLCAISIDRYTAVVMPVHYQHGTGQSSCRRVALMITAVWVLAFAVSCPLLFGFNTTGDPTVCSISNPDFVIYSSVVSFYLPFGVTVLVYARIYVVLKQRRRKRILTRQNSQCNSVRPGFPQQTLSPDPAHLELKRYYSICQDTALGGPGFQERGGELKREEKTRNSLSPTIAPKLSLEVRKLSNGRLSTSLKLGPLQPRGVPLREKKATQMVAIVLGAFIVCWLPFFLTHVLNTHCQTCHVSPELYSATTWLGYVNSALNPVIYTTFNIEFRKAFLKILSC

Usually Ki stands for the equilibrium dissociation constant of an inhibitor or competing ligand from its target. As for `CN1CN(c2ccccc2)C2(CCN(CCCCOc3ccc4c(c3)NC(=O)CC4)CC2)C1=O`, the Ki on D(3) dopamine receptor [1] was 427 nM; at D(4) dopamine receptor, 865 nM; on D(2) dopamine receptor [2], 611 nM.

Take `COc1ccccc1N1CCN(CCCCCOc2ccc3c(c2)NC(=O)CC3)CC1`: in assay [3], affinity was put at a Ki of 1350 nM.

Regarding `O=C1CCc2ccc(OCCCCN3CCC(n4c(=O)[nH]c5cc(Cl)ccc54)CC3)cc2N1`, the values for the Ki on D(3) dopamine receptor [1], on D(4) dopamine receptor and on D(2) dopamine receptor [2] were 574 nM, 1350 nM and 309 nM, respectively.

As for `O=C1CCc2ccc(OCCCCN3CCC(O)(c4ccc(Cl)cc4)CC3)cc2N1`, the inhibition constant (Ki) worked out at 417 nM in assay [3], 1540 nM at D(3) dopamine receptor [1], 1310 nM on D(4) dopamine receptor and 2600 nM at D(2) dopamine receptor [2].

Turning to `O=c1ccc2ccc(OCCCCN3CCN(c4ccccc4OCCF)CC3)cc2[nH]1`, the Ki in assay [3] was 20900 nM; at D(3) dopamine receptor [1], 2.7 nM; at D(4) dopamine receptor it was 31.9 nM; on D(2) dopamine receptor [2], 0.07 nM.

With `COc1ccccc1N1CCN(CCCOc2ccc3c(c2)NC(=O)CC3)CC1`, the inhibition constant Ki in assay [3] was 759 nM; on D(3) dopamine receptor [1], 7.4 nM; at D(4) dopamine receptor it was 38.5 nM; on D(2) dopamine receptor [4], 4.8 nM.

Take `COc1ccc(N2CCN(CCCCOc3ccc4c(c3)NC(=O)CC4)CC2)cc1`: the Ki in assay [3] worked out at 170 nM; at D(3) dopamine receptor [1] it was 930 nM; on D(4) dopamine receptor, 359 nM; at D(2) dopamine receptor [2] it was 102 nM.

As to `COc1ccc(N2CCN(CCCCOc3ccc4c(c3)NC(=O)CC4)CC2)c(OC)c1`, the Ki stood at 620 nM in assay [3], 785 nM on D(3) dopamine receptor [1], 286 nM at D(4) dopamine receptor and 25.3 nM on D(2) dopamine receptor [2].

Consider `COc1cc(C)ccc1N1CCN(CCCCOc2ccc3c(c2)NC(=O)CC3)CC1`, for which the Ki in assay [3] turned out to be 377 nM; at D(3) dopamine receptor [1], 251 nM; on D(4) dopamine receptor it was 27.2 nM; at D(2) dopamine receptor [2], 4.6 nM.

Take `O=C1CCc2ccc(OCCCCN3CCN(c4ccccc4OCCF)CC3)cc2N1`: on D(2) dopamine receptor [5], the Activity was 16%. Moreover, the Ki in assay [3] was found to be 13600 nM; at D(3) dopamine receptor [1], 13.5 nM; at D(4) dopamine receptor, 185 nM; on D(2) dopamine receptor [2], 0.26 nM. For the same compound, the outcome at D(2) dopamine receptor [6] and at D(3) dopamine receptor [7] was Active.

For the compound `COc1ccccc1N1CCN(CCCCOc2ccc3c(c2)NC(=O)CC3)CC1`, the Ki in assay [3] is 1180 nM.

As for `COc1ccccc1N1CCN(CCCOc2ccc3ccc(=O)[nH]c3c2)CC1`, the Ki in assay [3] amounted to 2600 nM; on D(3) dopamine receptor [1] it was 5.7 nM; at D(4) dopamine receptor, 52.7 nM; at D(2) dopamine receptor [2] it was 2.6 nM.

As for `COc1ccccc1N1CCN(CCCCCOc2ccc3ccc(=O)[nH]c3c2)CC1`, the Ki in assay [3] was 1610 nM; on D(3) dopamine receptor [1], 3.8 nM; at D(4) dopamine receptor it was 201 nM; at D(2) dopamine receptor [2] it was 7.4 nM.

Consider `COc1ccccc1N1CCN(CCCCOc2ccc3ccc(=O)[nH]c3c2)CC1`, for which the inhibitory constant (Ki) in assay [3] turned out to be 2630 nM; at D(3) dopamine receptor [1], 5.4 nM; on D(4) dopamine receptor, 30.1 nM; at D(2) dopamine receptor [2], 0.14 nM.

As to `O=C1CCc2ccc(OCCCCN3CCC(n4c(=O)[nH]c5ccccc54)CC3)cc2N1`, the Ki on D(3) dopamine receptor [1] was 879 nM; on D(4) dopamine receptor it was 1030 nM; at D(2) dopamine receptor [2] it was 145 nM.
